Where two headings read alike, the source gives them in different places.
Experiments:
AfUGM [1] = target: T1, AfUGM (Aspergillus fumigatus, UniProt Q4W1X2); test: FP binding assay to determine chromophore binding affinities (AfUGM); details: for Kd: UDP-fluorescent probes, 15 nM chromophore, serially diluted AfUGM, 0.05 M sodium phosphate pH 7.0, fluorescence anisotropy, read-out: K d for AfUGM; for Binding to AfUGM relative to the UDP-fluorescein analogs (times better): ratio of Kd values
T1 construct: made in house
T1 sequence (Q4W1X2 whole entry): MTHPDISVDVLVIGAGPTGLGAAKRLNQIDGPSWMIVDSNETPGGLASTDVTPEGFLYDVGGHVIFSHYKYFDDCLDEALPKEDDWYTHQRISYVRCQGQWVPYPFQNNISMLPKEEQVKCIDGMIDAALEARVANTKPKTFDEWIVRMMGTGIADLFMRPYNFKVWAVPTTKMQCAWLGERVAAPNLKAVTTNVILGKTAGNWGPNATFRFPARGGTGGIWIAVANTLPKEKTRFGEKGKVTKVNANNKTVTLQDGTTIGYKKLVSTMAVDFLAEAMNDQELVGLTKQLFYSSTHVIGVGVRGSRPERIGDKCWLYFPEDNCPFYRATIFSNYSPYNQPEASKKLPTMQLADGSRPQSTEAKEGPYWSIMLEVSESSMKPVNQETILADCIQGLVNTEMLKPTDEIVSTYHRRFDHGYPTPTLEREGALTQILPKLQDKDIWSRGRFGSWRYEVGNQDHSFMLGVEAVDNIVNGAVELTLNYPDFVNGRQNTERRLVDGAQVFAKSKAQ
Description: Solutions containing various concentrations of chromophore in 0.05 M sodium phosphate buffer (pH 7.0) were added to 12 wells in a 96-well half area black bottom plate (Corning) with final volumes of 25 μL. FP was analyzed by a SpectraMax M5 plate reader (Molecular Devices). The parallel fluorescence emission (F=) and perpendicular fluorescence emission (F⊥) at 524 nm (for compounds 1 and 2, excitation at 492 nm) or at 584 nm (for compounds 3 and 4, excitation at 544 nm) were measured by a SpectraMax M5 plate reader (Molecular Devices), and the anisotropy (r) was calculated using (1), the minimal concentration at which stable FP signals with minimal standard deviations were chosen as the optimal concentration for the chromophore.
(1) r=F=−G·F⊥/F=+2G·F⊥ (2) y=m1+(m2−m1) ×(x+Ct+m3)−(x+Ct+m3)^2−4xCt/2Ct
Solutions containing serially diluted AfUGM and 15 nM of chromophore in 0.05 M sodium phosphate buffer (pH 7.0) were incubated at room temperature for 5 minutes. Each experiment was done in triplicate in a 96-well black bottom plate at final volumes of 25 μL. Fluorescence anisotropy was measured as indicated above, and the K d values were obtained by fitting the anisotropy data to (2), where m 1 and m 2 are the minimum and maximum anisotropy values, respectively; m 3 is the K d value, and the total concentration of UDP-chromophore is represented by C t.

MtUGM [2] = target: T2, MtUGM (Mycobacterium tuberculosis, UniProt P9WIQ1); test: FP binding assay to determine chromophore binding affinities (MtUGM); details: UDP-fluorescent probes, fluorescence anisotropy; read-out: K d for MtUGM
T2 construct: made in house
T2 sequence (P9WIQ1 whole entry): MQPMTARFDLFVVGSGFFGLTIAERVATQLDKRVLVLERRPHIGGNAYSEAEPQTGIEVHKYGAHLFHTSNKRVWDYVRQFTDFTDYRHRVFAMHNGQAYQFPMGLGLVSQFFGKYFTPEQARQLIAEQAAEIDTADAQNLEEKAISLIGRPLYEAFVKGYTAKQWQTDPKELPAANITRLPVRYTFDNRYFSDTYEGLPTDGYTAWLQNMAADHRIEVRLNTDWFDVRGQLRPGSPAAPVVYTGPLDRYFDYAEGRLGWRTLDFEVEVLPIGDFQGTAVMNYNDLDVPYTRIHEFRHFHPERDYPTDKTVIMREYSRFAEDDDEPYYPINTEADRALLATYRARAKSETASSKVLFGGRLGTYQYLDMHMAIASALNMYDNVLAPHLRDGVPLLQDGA

AfUGM [3] = target: T1, AfUGM; test: Competitive binding experiments using FP inhibition assay (AfUGM, chromophore 3 as probe)
Description: (§1) Each solution was done in triplicate. Anisotropy values were measured and the IC50 values obtained by fitting the data to (4), where m 1 and m 2 are the minimum and maximum anisotropy, respectively; m 3 is the slope, and m4 is the IC50.

MtUGM [4] = target: T2, MtUGM; test: Competitive binding FP inhibition assay (MtUGM)
Description: as §1

AfUGM [5] = target: T1, AfUGM; details: previously determined; read-out: K d for AfUGM by directly monitoring the flavin fluorescence; cited from earlier work
AfUGM [6] = target: T1, AfUGM; test: AfUGM activity assay (formation of UDP-Galp from UDP-Galf by HPLC); format: biochemical; details: 0.5 mM UDP-Galf, 50 nM AfUGM, 37°C, 10 min
Description: A 20 μL reaction containing 20 mM dithiothreitol, 0.5 mM UDP-Galf in 25 mM HEPES, 125 mM NaCl buffer, pH 7.5 in the absence of 7 or 8 was initiated by the addition of AfUGM at a final concentration of 50 nM. After incubation at 37°C for 10 min, the reaction was quenched by heat denaturation (95°C for 5 min) in a DNA engine thermocycler (BioRad, Hercules, Calif, USA). The same reaction was also performed in the presence of 7 (500 μM) or 8 (50 μM). The suspension was centrifuged and the supernatant was injected onto a CarboPac PA100 (Dionex) anion-exchange column. The sample was eluted isocratically with 75 mM KH2PO4 (pH 4.5), and the absorbance at 262 nm was monitored to identify fractions of substrate and product.

Row | SMILES | Kd (AfUGM [1]) [µM] | Binding to AfUGM relative to the UDP-fluorescein analogs (times better) (AfUGM [1]) | Kd (MtUGM [2]) [µM] | Kd (AfUGM [3]) [µM] | Kd (MtUGM [4]) [µM] | further results
1 | CN(C)c1ccc2c(-c3ccc(C(=O)NCCCCCCOP(=O)(O)OP(=O)(O)OCC4OC(n5ccc(=O)[nH]c5=O)C(O)C4O)cc3C(=O)[O-])c3ccc(=[N+](C)C)cc-3oc2c1 (stereo not drawn) [Chromophore 3] | 2.6 ± 0.2 | ~ 6 times | 0.73 ± 0.07 |  |  | 
2 | CN(C)c1ccc2c(-c3ccc(C(=O)NCCOP(=O)(O)OP(=O)(O)OCC4OC(n5ccc(=O)[nH]c5=O)C(O)C4O)cc3C(=O)[O-])c3ccc(=[N+](C)C)cc-3oc2c1 (stereo not drawn) [Chromophore 4] | 3 ± 0.7 | ~ 6 times | > 30 |  |  | 
3 | O=c1ccn([C@@H]2O[C@H](COP(=O)(O)OP(=O)(O)O)[C@@H](O)[C@H]2O)c(=O)[nH]1 [UDP] |  |  |  |  |  | Kd (AfUGM [3]; read-out: K d for AfUGM): 9 ± 1.7 µM; Kd (MtUGM [4]; UGM ligands, FP competition, read-out: K d for MtUGM): 15 ± 2 µM; Kd (AfUGM [5]): 33 ± 9 µM
4 | O=C(Nc1ccccc1C(=O)O)c1ccc2c(c1)C(=O)N(c1ccc(Br)cc1)C2=O [compound 7] |  |  |  | 140 ± 9 | 21 ± 1 | Inhibition of AfUGM activity (conversion of UDP-Galf to UDP-Galp, HPLC) (AfUGM [6]; inhibitor 500 μM): inhibit the activity of AfUGM
5 | O=C1N/C(=N/S(=O)(=O)c2ccccc2)S/C1=C1/C(=O)Nc2ccc([N+](=O)[O-])cc21 [compound 8] |  |  |  | 11 ± 0.4 | 25 ± 2 | Inhibition of AfUGM activity (conversion of UDP-Galf to UDP-Galp, HPLC) (AfUGM [6]; inhibitor 50 μM): inhibit the activity of AfUGM

Reference: PMC3159312 (Enzyme Research, 2011)
